In patent US12569508B2, “Antimicrobial compositions and methods of use” (priority 2020, dated 2026):

Key:
[1] = Deposition efficiency after nebulisation (Aerogen Pro vibrating mesh nebuliser); format: physicochemical; conditions: 100 μL nebulised into 24-well plate
Protocol: The Aerogen® Pro (vibrating mesh nebuliser) connected to a nebuliser chamber was used to aerosolise unformulated solutions of TOB, and LCNPs loaded with TOB. The nebulisation chamber fitted into the well of a 24-well plate, ensuring the dose was deposited into a single well. Before use, the nebuliser was rinsed twice with 0.9% NaCl. Then each formulation of TOB was tested to ensure an even aerosol was produced. 100 μL of TOB as an unformulated solution, and in MO-LCNPs and PHY-LCNPs was nebulised into the wells of a 24-well plate that contained 200 μL of 0.9% sodium chloride. The total drug concentration was then determined from each well to calculate the total mass deposited. […] The nebulised samples were assessed for particle size and zeta potential, as described above.
For the nebulisation samples and transport studies (see below), TOB was quantified by liquid chromatography tandem mass spectrometry (LC-MS) using a Dionex UltiMate 3000 Binary Rapid Separation LC System (Thermo Scientific, USA) coupled with a TSQ Quantum Access Max (QQQ, Thermo Scientific, USA) and a modified ion-pairing method. […] 3 μL of the samples were injected and quantification was done by ESI+ and the SRM of the ion 468.184→323.960.

[2] = test system: P. aeruginosa (PAO1); experiment: C. elegans PAO1 infection model; format: in vivo, Caenorhabditis elegans
Protocol: For the infection study, an overnight culture of P. aeruginosa (PAO1) was diluted to an OD of 0.1 and 200 μL was seeded onto NGM (50 mM NaCl and 0.35% peptone) agar plates for 12 h at 37° C. After 12 h, the collected L4 stage nematodes were incubated on PAO1 seeded agar plates and allowed to feed on the bacteria for 6 h at 25° C. (Uccelletti D et al., 2010, Antimicrobial Agents and Chemotherapy 54(9), 3853-3860). Thereafter, the nematodes were removed from the agar and washed multiple times to remove PAO1 from the outside and the nematodes were split into groups of 20 in OGM medium. Besides the non-treated control, the infected nematodes were treated with various concentrations of tobramycin as an unformulated solution or loaded in MO-LCNPs.
In both the healthy and infected nematodes study, nematodes were assessed as live or dead under a bright field microscopy through either being curled and moving (live) or stiff and non-moving (dead) at 4 h, 24 h and 48 h post treatment. The percentage of live nematodes to the total number of nematodes in the samples was compared to healthy, non-treated controls to compute the % survival.
Following 24 h and 48 h, samples of the nematodes were taken and washed with M9 buffer containing 1 mM sodium azide and then 0.01 M PBS before being counted. The nematodes were then mechanically disrupted via vortex mixing in tubes with 200 mg of 1.0 mm silicon carbide beads (BioSpec Products, Bartleville, OK) for 10 mins (Richter K et al. 2017, Frontiers in Cellular and Infection Microbiology, 7: Article 280). The disrupted nematodes and bacterial suspensions were serial diluted and spot plated on Pseudomonas isolation agar for colony forming units (CFU) counting to determine the CFU per nematode.

[3] = test system: 6 mm full-thickness wound infected with P. aeruginosa; experiment: Chronic full-thickness wound infection model: macroscopic and microscopic wound healing; format: in vivo, Balb/c mice
Protocol: Following the same procedure as above, male and female mice were wounded with a 6 mm circular full-thickness wound under anaesthesia and pain relief. […] Treatments were repeated every 24 h for three days and monitored for the bacterial burden and digital photographs. On day six, mice were sacrificed as described above. Digital photographs of the wounds that were taken daily (day zero to six) were used for the macroscopic assessment of healing using ImageJ software. The images were calibrated to a ruler to measure the wounds length, gape and surface area, as previously described (Abbott C A et al., 2013, supra). The microscopic analysis was completed with histology assessments. Following overnight fixation in 4% (v/v) formaldehyde, collected wound halves were routinely processed into paraffin, and 4 μm thick sections were cut using a semi-automated rotary microtome (HistoCore MultiCut, Leica Biosystems, Melbourne, Australia). The sections were stained for haematoxylin and eosin using established protocols (Kopecki, Z., et al., 2009, supra). Following, all sections were imaged via […] slide scanner, Hamamatsu Photonics, Japan) and analysed using NDP.view2 Viewing software (Hamamatsu Photonics, Japan) to microscopically assess the healing via measurement of wound length, gape and percentage of wound re-epithelisation following previously used protocols ([…]., et al., 2021, supra).

NC[C@H]1O[C@H](O[C@H]2[C@H](O)[C@@H](O[C@H]3O[C@H](CO)[C@@H](O)[C@H](N)[C@H]3O)[C@H](N)C[C@@H]2N)[C@H](N)C[C@@H]1O [unformulated TOB, tobramycin]
deposition efficiency of TOB [1]: 3.25%
survival of infected nematodes ([2]; 24 h, 3 μg/mL): 13%
survival of infected nematodes ([2]; 24 h, 6 μg/mL): 65%
survival of infected nematodes ([2]; 24 h, 15 μg/mL): 83%
bacteria killed compared to control ([2]; 24 h, 15 μg/mL and 60 μg/mL): 1 log
survival of infected nematodes ([2]; 24 h, 60 μg/mL): 87%
PAO1 infection level ([2]; 48 h): ~4 log
survival of infected nematodes ([2]; 48 h, 3 μg/mL): 7%
PAO1 surviving ([2]; 48 h, 60 μg/mL): 2 log
average survival of infected nematodes ([2]; 48 h, 6-60 μg/mL): 65%
macroscopic dermal gape ([3]; day five): 88±11%
macroscopic wound area (of the original wound) ([3]; day five, after two doses): 66±13%
dermal gape (histology) ([3]; day six): 5.2±0.8 mm
macroscopic dermal gape ([3]; day six): 77±10%
macroscopic wound area (of the original wound) ([3]; day six, after three doses): 75±18%
wound length (histology) ([3]; day six, after three doses): 7.6±0.9 mm
wound reepithelization ([3]; day six, histology): 41±8%
